Test results: patent US6756387B2, “Hydroxyphenyl-piperidin-4-ylidene-methyl-benzamide derivatives for the treatment of pain” (AstraZeneca AB, priority 2000, dated 2004)

Columns and labels:
Format in all cases: biochemical
[1] = target: T1, cloned human δ receptor (HDELTA) (Homo sapiens, UniProt P41143); assay: GTP[γ]35S binding functional assay, membranes from HEK-293S cells expressing cloned human opioid receptors; conditions: HEK-293S membranes, read-out: HDELTA % E Max
T1 construct: expressed in transfected cells; host or cells: human 293S (HEK-293S) cells, geneticin-selected
T1 sequence (P41143 whole entry): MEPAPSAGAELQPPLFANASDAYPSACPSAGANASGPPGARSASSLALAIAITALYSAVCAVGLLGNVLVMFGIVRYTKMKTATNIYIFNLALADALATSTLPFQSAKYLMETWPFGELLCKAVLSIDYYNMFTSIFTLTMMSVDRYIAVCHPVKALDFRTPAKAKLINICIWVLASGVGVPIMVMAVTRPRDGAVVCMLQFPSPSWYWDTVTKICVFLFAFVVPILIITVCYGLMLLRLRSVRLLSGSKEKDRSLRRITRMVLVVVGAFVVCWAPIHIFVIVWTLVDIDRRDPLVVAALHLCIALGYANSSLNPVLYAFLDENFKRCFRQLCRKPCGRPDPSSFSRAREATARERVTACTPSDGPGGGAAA
Protocol: A. Human 293S cells expressing cloned human μ, δ, and κ receptors and neomycin resistance were grown in suspension at 37° C. and 5% CO2 in shaker flasks containing calcium-free DMEM10% FBS, 5% BCS, 0.1% Pluronic F-68, and 600 μg/ml geneticin.
Cells were pelleted and resuspended in lysis buffer (50 mM Tris, pH 7.0, 2.5 mM EDTA, with PMSF added just prior to use to 0.1 mM from a 0.1 M stock in ethanol), incubated on ice for 15 min, then homogenized with a polytron for 30 sec. The suspension was spun at 1,000 g (max) for 10 min at 4° C. The supernatant was saved on ice and the pellets resuspended and spun as before. The supernatants from both spins were combined and spun at 46,000 g(max) for 30 min. The pellets were resuspended in cold Tris buffer (50 mM Tris/Cl, pH 7.0) and spun again. The final pellets were resuspended in membrane buffer (50 mM Tris, 0.32 M sucrose, pH 7.0). Aliquots (1 ml) in polypropylene tubes were frozen in dry ice/ethanol and stored at −70° C. until use. The protein concentrations were determined by a modified Lowry assay with SDS.
(§1) The agonist activity of the compounds is measured by determining the degree to which the compounds receptor complex activates the binding of GTP to G-proteins to which the receptors are coupled. In the GTP binding assay, GTP[γ]^35S is combined with test compounds and membranes from HEK-293S cells expressing the cloned human opioid receptors or from homogenised rat and mouse brain. Agonists stimulate GTP[γ]^35S binding in these membranes. The EC50 and Emax values of compounds are determined from dose-response curves. Right shifts of the dose response curve by the delta antagonist naltrindole are performed to verify that agonist activity is mediated through delta receptors.

[2] = target: T2, delta receptors, rat brain membranes (Rattus norvegicus, UniProt P33533); assay: GTP[γ]35S binding functional assay, homogenised rat brain; conditions: rat brain homogenate, read-out: RAT BRAIN % E Max
T2 construct: from tissue; host or cells: rat brain homogenate
T2 sequence (P33533 whole entry): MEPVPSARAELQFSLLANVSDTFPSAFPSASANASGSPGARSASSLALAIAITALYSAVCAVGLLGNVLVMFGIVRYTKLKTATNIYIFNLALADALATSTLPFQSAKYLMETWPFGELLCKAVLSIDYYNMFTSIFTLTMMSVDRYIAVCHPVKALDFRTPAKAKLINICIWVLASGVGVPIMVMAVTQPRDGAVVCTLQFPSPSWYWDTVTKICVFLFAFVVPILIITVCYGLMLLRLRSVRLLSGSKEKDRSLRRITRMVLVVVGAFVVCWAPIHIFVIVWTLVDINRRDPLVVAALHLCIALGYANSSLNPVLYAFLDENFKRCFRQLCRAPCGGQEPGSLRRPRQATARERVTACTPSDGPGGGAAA
Protocol: (§2) B. Mouse and rat brains were weighed and rinsed in ice-cold PBS (containing 2.5 mM EDTA, pH 7.4). The brains were homogenized with a polytron for 15 sec (mouse) or 30 sec (rat) in ice-cold lysis buffer (50 mM Tris, pH 7.0, 2.5 mM EDTA, with phenylmethylsulfonyl fluoride added just prior use to […] from a 0.5M stock in DMSO:ethanol).
as §1

[3] = target: T3, delta receptors, mouse brain membranes (Mus musculus, UniProt P32300); assay: GTP[γ]35S binding functional assay, homogenised mouse brain; conditions: mouse brain homogenate, read-out: MOUSE BRAIN % E Max
T3 construct: from tissue; host or cells: mouse brain homogenate
T3 sequence (P32300 whole entry): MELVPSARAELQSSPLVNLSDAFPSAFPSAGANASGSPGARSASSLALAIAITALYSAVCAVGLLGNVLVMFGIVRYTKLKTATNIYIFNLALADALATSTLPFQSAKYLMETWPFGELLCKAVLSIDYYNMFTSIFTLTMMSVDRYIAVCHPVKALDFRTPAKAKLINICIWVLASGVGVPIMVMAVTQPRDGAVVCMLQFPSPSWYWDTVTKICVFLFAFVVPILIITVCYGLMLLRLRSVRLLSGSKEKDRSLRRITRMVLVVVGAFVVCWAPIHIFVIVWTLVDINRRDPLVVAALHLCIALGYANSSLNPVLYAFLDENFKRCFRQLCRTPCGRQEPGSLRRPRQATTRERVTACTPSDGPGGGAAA
Protocol: as §2, §1

Compound | Emax [1] [%] | Emax [2] [%] | Emax [3] [%]
CCN(CC)C(=O)c1ccc(C(=C2CCN(Cc3ccccc3)CC2)c2cccc(O)c2)cc1 [Example 2, N,N-diethyl-4-(3-hydroxylphenyl-N-benzyl-piperidin-4-ylidene-methyl)-benzamide] | 104 | 112 | 104
CCN(CC)C(=O)c1ccc(C(=C2CCN(Cc3nccs3)CC2)c2cccc(O)c2)cc1 [Example 11, N,N-diethyl-4-{(3-hydroxyphenyl)[1-(1,3-thiazol-2-ylmethyl)-4-piperidinylidene]methyl}benzamide] | 115 | 120 | 118
CCN(CC)C(=O)c1ccc(C(=C2CCN(Cc3ccncc3)CC2)c2cccc(O)c2)cc1 [Example 8, N,N-diethyl-4-{(3-hydroxyphenyl)[1-(4-pyridinylmethyl)-4-piperidinylidene]methyl}benzamide] | 112 | 81.4 | 78.2
CCN(CC)C(=O)c1ccc(C(=C2CCN(Cc3cccs3)CC2)c2cccc(O)c2)cc1 [Example 3, N,N-diethyl-4-{(3-hydroxyphenyl)[1-(2-thienylmethyl)-4-piperidinylidene]methyl}benzamide] | 98.2 | 168 | 186
CCN(CC)C(=O)c1ccc(C(=C2CCN(Cc3ncc[nH]3)CC2)c2cccc(O)c2)cc1 [Example 9, N,N-diethyl-4-{(3-hydroxyphenyl)[1-(1H-imidazol-2-ylmethyl)-4-piperidinylidene]methyl}benzamide] | 106 | 151 | 136
CCN(CC)C(=O)c1ccc(C(=C2CCN(Cc3ccccn3)CC2)c2cccc(O)c2)cc1 [Example 7, N,N-diethyl-4-{(3-hydroxyphenyl)[1-(2-pyridinylmethyl)-4-piperidinylidene]methyl}benzamide] | 103 | 135 | 138
CCN(CC)C(=O)c1ccc(C(=C2CCN(Cc3ccco3)CC2)c2cccc(O)c2)cc1 [Example 5, N,N-diethyl-4-[[1-(2-furylmethyl)-4-piperidinylidene](3-hydroxyphenyl)methyl]benzamide] | 94.8 | 132 | 134
CCN(CC)C(=O)c1ccc(C(=C2CCN(Cc3c[nH]cn3)CC2)c2cccc(O)c2)cc1 [Example 10, N,N-diethyl-4-{(3-hydroxyphenyl)[1-(1H-imidazol-4-ylmethyl)-4-piperidinylidene]methyl}benzamide] | 107 | 102 | 104
